Data reported in patent publication US20230111310A1, “CARBOXYLIC ACID DERIVATIVE-SUBSTITUTED IMINO ARYL COMPOUND, PREPARATION METHOD THEREFOR, HERBICIDAL COMPOSITION AND USE THEREOF” (Qingdao Kingagroot Chemical Compound Co., Ltd., priority 2020, published 2023).

How the values were obtained:
Type in all cases: in vivo
Abutilon theophrasti [1] = assay: Weeding effect in post-emergence stage; settings: Dose 15 g/ha; for Weeding effect in post-emergence stage, Abutilon theophrasti: level of fresh weight growth control rate; for Weeding effect in post-emergence stage, Abutilon theophrasti (level): fresh weight control rate level
Procedure, shortened: (§1)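 Read-out is growth control rate, counted 3 weeks post-spray and averaged over three repeats. Greenhouse plants at the 2-3 leaf stage received spray-tower application at 500, 250, 125, 60, 30, 15 or 7.5 g/ha, with methyl oleate EC (1.5 liter/ha) and Tween 80 added.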

Alopecurus japonicus = assay: Weeding effect in post-emergence stage; settings: Dose 15 g/ha; for Weeding effect in post-emergence stage, Alopecurus japonicus: level of fresh weight growth control rate; for Weeding effect in post-emergence stage, Alopecurus japonicus (level): fresh weight control rate level
Procedure, shortened: as §1

Digitaria sanguinalis = assay: Weeding effect in post-emergence stage; settings: Dose 15 g/ha; for Weeding effect in post-emergence stage, Digitaria sanguinalis: level of fresh weight growth control rate; for Weeding effect in post-emergence stage, Digitaria sanguinalis (level): fresh weight control rate level
Procedure, shortened: as §1

Eleusine indica = assay: Weeding effect in post-emergence stage; settings: Dose 15 g/ha; for Weeding effect in post-emergence stage, Eleusine indica: level of fresh weight growth control rate; for Weeding effect in post-emergence stage, Eleusine indica (level): fresh weight control rate level
Procedure, shortened: as §1

Setaria viridis [2] = assay: Weeding effect in post-emergence stage; settings: Dose 15 g/ha; for Weeding effect in post-emergence stage, Setaria viridis: level of fresh weight growth control rate; for Weeding effect in post-emergence stage, Setaria viridis (level): fresh weight control rate level
Procedure, shortened: as §1

Echinochloa crusgalli = assay: Weeding effect in post-emergence stage; settings: Dose 15 g/ha; for Weeding effect in post-emergence stage, Echinochloa crusgalli: level of fresh weight growth control rate; for Weeding effect in post-emergence stage, Echinochloa crusgalli (level): fresh weight control rate level
Procedure, shortened: as §1

Abutilon theophrasti [3] = assay: Weeding effect in pre-emergence stage; settings: 30 g/ha, 4 weeks
Procedure, shortened: (§2)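 Pots were kept in the greenhouse for 4 weeks and then rated for growth control on activity-level criteria. Spraying took place immediately after sowing at application rates of 500 to 7.5 g/ha, using an acetone/tween 80 formulation diluted with water, on seeds under 0.5-2 cm of soil.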

Amaranthus retroflexus = assay: Weeding effect in pre-emergence stage; settings: 30 g/ha, 4 weeks
Procedure, shortened: as §2

Capsella bursa-pastoris = assay: Weeding effect in pre-emergence stage; settings: 30 g/ha, 4 weeks
Procedure, shortened: as §2

Descurainia sophia = assay: Weeding effect in pre-emergence stage; settings: 30 g/ha, 4 weeks
Procedure, shortened: as §2

Setaria viridis [4] = assay: Weeding effect in pre-emergence stage; settings: 30 g/ha, 4 weeks
Procedure, shortened: as §2

Veronica didyma Tenore = assay: Weeding effect in pre-emergence stage; settings: 30 g/ha, 4 weeks
Procedure, shortened: as §2

Peanut = assay: Pre-emergence stage, crop selectivity; settings: 30 g/ha, 4 weeks
Procedure, shortened: as §2

Soybeans = assay: Pre-emergence stage, crop selectivity; settings: 30 g/ha, 4 weeks
Procedure, shortened: as §2

corn = assay: Pre-emergence stage, crop selectivity; settings: 30 g/ha, 4 weeks
Procedure, shortened: as §2

cotton = assay: Pre-emergence stage, crop selectivity; settings: 30 g/ha, 4 weeks
Procedure, shortened: as §2

| SMILES | Weeding effect in post-emergence stage, Abutilon theophrasti (Abutilon theophrasti [1]) | Weeding effect in post-emergence stage, Alopecurus japonicus (Alopecurus japonicus) | Weeding effect in post-emergence stage, Digitaria sanguinalis (Digitaria sanguinalis) | Weeding effect in post-emergence stage, Eleusine indica (Eleusine indica) | Weeding effect in post-emergence stage, Setaria viridis (Setaria viridis [2]) | Weeding effect in post-emergence stage, Echinochloa crusgalli (Echinochloa crusgalli) | activity level (growth control rate) Abutilon theophrasti (Abutilon theophrasti [3]) | activity level (growth control rate) Amaranthus retroflexus (Amaranthus retroflexus) | activity level (growth control rate) Capsella bursa-pastoris (Capsella bursa-pastoris) | activity level (growth control rate) Descurainia sophia (Descurainia sophia) | activity level (growth control rate) Setaria viridis (Setaria viridis [4]) | activity level (growth control rate) Veronica didyma Tenore (Veronica didyma Tenore) | plant damage level Peanut (Peanut) | plant damage level Soybeans (Soybeans) | plant damage level Corn (corn) | plant damage level Cotton (cotton) | Weeding effect in post-emergence stage, Abutilon theophrasti (level) (Abutilon theophrasti [1]) | Weeding effect in post-emergence stage, Alopecurus japonicus (level) (Alopecurus japonicus) | Weeding effect in post-emergence stage, Digitaria sanguinalis (level) (Digitaria sanguinalis) | Weeding effect in post-emergence stage, Eleusine indica (level) (Eleusine indica) | other results |
| --- | --- | --- | --- | --- | --- | --- | --- | --- | --- | --- | --- | --- | --- | --- | --- | --- | --- | --- | --- | --- | --- |
| CC[C@@H](O/N=C/c1cc(-n2c(=O)cc(C(F)(F)F)n(C)c2=O)c(F)cc1Cl)C(=O)OC [315(R)] | 5 (Level 5: growth control rate is above 85%) | 5 (Level 5: growth control rate is above 85%) | 5 (Level 5: growth control rate is above 85%) | 5 (Level 5: growth control rate is above 85%) | 5 (Level 5: growth control rate is above 85%) | 5 (Level 5: growth control rate is above 85%) | 5 (Level 5: growth control rate is above 85%) | 5 (Level 5: growth control rate is above 85%) | 5 (Level 5: growth control rate is above 85%) | 5 (Level 5: growth control rate is above 85%) | 5 (Level 5: growth control rate is above 85%) | 5 (Level 5: growth control rate is above 85%) | 0 (Level 0: growth control rate is less than 5%) | 0 (Level 0: growth control rate is less than 5%) | 0 (Level 0: growth control rate is less than 5%) | 0 (Level 0: growth control rate is less than 5%) | – | – | – | – | – |
| COC[C@@H](O/N=C/c1cc(-n2c(=O)cc(C(F)(F)F)n(C)c2=O)c(F)cc1Cl)C(=O)OC [333(R)] | 5 (Level 5: growth control rate is above 85%) | 5 (Level 5: growth control rate is above 85%) | 5 (Level 5: growth control rate is above 85%) | 5 (Level 5: growth control rate is above 85%) | 5 (Level 5: growth control rate is above 85%) | 5 (Level 5: growth control rate is above 85%) | 5 (Level 5: growth control rate is above 85%) | 5 (Level 5: growth control rate is above 85%) | 5 (Level 5: growth control rate is above 85%) | 5 (Level 5: growth control rate is above 85%) | 5 (Level 5: growth control rate is above 85%) | 5 (Level 5: growth control rate is above 85%) | 0 (Level 0: growth control rate is less than 5%) | 0 (Level 0: growth control rate is less than 5%) | 0 (Level 0: growth control rate is less than 5%) | 0 (Level 0: growth control rate is less than 5%) | – | – | – | – | – |
| COC(=O)[C@@H](C)O/N=C/c1cc(-n2c(=S)cc(C(F)(F)F)n(C)c2=O)c(F)cc1Cl [349(R)] | 5 (Level 5: growth control rate is above 85%) | 5 (Level 5: growth control rate is above 85%) | 5 (Level 5: growth control rate is above 85%) | 5 (Level 5: growth control rate is above 85%) | 5 (Level 5: growth control rate is above 85%) | 5 (Level 5: growth control rate is above 85%) | 5 (Level 5: growth control rate is above 85%) | 5 (Level 5: growth control rate is above 85%) | 5 (Level 5: growth control rate is above 85%) | 5 (Level 5: growth control rate is above 85%) | 5 (Level 5: growth control rate is above 85%) | 5 (Level 5: growth control rate is above 85%) | 0 (Level 0: growth control rate is less than 5%) | 0 (Level 0: growth control rate is less than 5%) | 0 (Level 0: growth control rate is less than 5%) | 0 (Level 0: growth control rate is less than 5%) | – | – | – | – | – |
| CCSC(=O)[C@@H](C)O/N=C/c1cc(-n2c(=O)cc(C(F)(F)F)n(C)c2=O)c(F)cc1Cl [398(R)] | – | – | – | – | – | – | 5 (Level 5: growth control rate is above 85%) | 5 (Level 5: growth control rate is above 85%) | 5 (Level 5: growth control rate is above 85%) | 5 (Level 5: growth control rate is above 85%) | 5 (Level 5: growth control rate is above 85%) | 5 (Level 5: growth control rate is above 85%) | 0 (Level 0: growth control rate is less than 5%) | 0 (Level 0: growth control rate is less than 5%) | 0 (Level 0: growth control rate is less than 5%) | 0 (Level 0: growth control rate is less than 5%) | 5 (Level 5: growth control rate is above 85%) | 5 (Level 5: growth control rate is above 85%) | 5 (Level 5: growth control rate is above 85%) | 5 (Level 5: growth control rate is above 85%) | Weeding effect in post-emergence stage, Setaria viridis (level) (Setaria viridis [2]): 5 (Level 5: growth control rate is above 85%); Weeding effect in post-emergence stage, Echinochloa crusgalli (level) (Echinochloa crusgalli): 5 (Level 5: growth control rate is above 85%) |
| COC(=O)[C@@H](C)O/N=C/c1cc(-n2c(=O)c(Cl)c(C(F)(F)F)n(C)c2=O)c(F)cc1Cl [431(R)] | – | – | – | – | – | – | 5 (Level 5: growth control rate is above 85%) | 5 (Level 5: growth control rate is above 85%) | 5 (Level 5: growth control rate is above 85%) | 5 (Level 5: growth control rate is above 85%) | 5 (Level 5: growth control rate is above 85%) | 5 (Level 5: growth control rate is above 85%) | 0 (Level 0: growth control rate is less than 5%) | 0 (Level 0: growth control rate is less than 5%) | 0 (Level 0: growth control rate is less than 5%) | 0 (Level 0: growth control rate is less than 5%) | 5 (Level 5: growth control rate is above 85%) | 5 (Level 5: growth control rate is above 85%) | 5 (Level 5: growth control rate is above 85%) | 5 (Level 5: growth control rate is above 85%) | Weeding effect in post-emergence stage, Setaria viridis (level) (Setaria viridis [2]): 5 (Level 5: growth control rate is above 85%); Weeding effect in post-emergence stage, Echinochloa crusgalli (level) (Echinochloa crusgalli): 5 (Level 5: growth control rate is above 85%) |
| COC(=O)[C@@H](C)O/N=C/c1cc(N2C(=O)CC(N)(C(F)(F)F)N(C)C2=O)c(F)cc1Cl (stereo partly drawn) [432(R)] | – | – | – | – | – | – | 5 (Level 5: growth control rate is above 85%) | 5 (Level 5: growth control rate is above 85%) | 5 (Level 5: growth control rate is above 85%) | 5 (Level 5: growth control rate is above 85%) | 5 (Level 5: growth control rate is above 85%) | 5 (Level 5: growth control rate is above 85%) | 0 (Level 0: growth control rate is less than 5%) | 0 (Level 0: growth control rate is less than 5%) | 0 (Level 0: growth control rate is less than 5%) | 0 (Level 0: growth control rate is less than 5%) | 5 (Level 5: growth control rate is above 85%) | 5 (Level 5: growth control rate is above 85%) | 5 (Level 5: growth control rate is above 85%) | 5 (Level 5: growth control rate is above 85%) | Weeding effect in post-emergence stage, Setaria viridis (level) (Setaria viridis [2]): 5 (Level 5: growth control rate is above 85%); Weeding effect in post-emergence stage, Echinochloa crusgalli (level) (Echinochloa crusgalli): 5 (Level 5: growth control rate is above 85%) |
